Columns and labels:
Caco-2 = test: compound was evaluated for their ability to cross a Caco-2-monolayer; type: functional, cell-based; conditions: Homo sapiens
Prothrombin = Prothrombin (Homo sapiens, UniProt P00734); test: Inhibitory activity against thrombin was measured by its ability to cleave the synthetic substrate S-2238(D-Phe-Pip-Arg-pNA); conditions: read-out: I50
[1] = pKa value of the compound; type: physicochemical

IC50 (Prothrombin) [µM]	pKa [1]	SMILES	Permeability coefficient (Caco-2) [×10⁻⁶ cm/s]
> 115	3.5	CC1CCN(C(=O)[C@H](CCCNc2ncccn2)NS(=O)(=O)c2ccc3ccccc3c2)CC1	13.8
24	5.2	CC1CCN(C(=O)[C@H](CCCNc2cccnn2)NS(=O)(=O)c2ccc3ccccc3c2)CC1	12.3
0.47	6.9	COc1ccc2ccc(S(=O)(=O)N[C@@H](CCCNc3ccccn3)C(=O)N3CCC(C)CC3)cc2c1	3
2.3	5.2	COc1ccc2ccc(S(=O)(=O)N[C@@H](CCCNc3cccnn3)C(=O)N3CCC(C)CC3)cc2c1	12.1
> 40	3.1	CC1CCN(C(=O)[C@H](CCCNc2cnccn2)NS(=O)(=O)c2ccc3ccccc3c2)CC1	14.2
2.5	14	CC1CCN(C(=O)[C@H](CCCN=C(N)N)NS(=O)(=O)c2ccc3ccccc3c2)CC1	0.4
5.5	6.9	CC1CCN(C(=O)[C@H](CCCNc2ccccn2)NS(=O)(=O)c2ccc3ccccc3c2)CC1	–
–	14	CC1CNc2c(cccc2S(=O)(=O)NC(CCCNC(=N)N)C(=O)N2CC[C@@H](C)C[C@@H]2C(=O)O)C1 (single isomer, unassigned) [ARGATROBAN]	0.3

— ChEMBL document CHEMBL1127967, “Argatroban analogs: Synthesis, thrombin inhibitory activity and cell permeability of aminoheterocyclic guanidine surrogates” (Bioorg Med Chem Lett, 1994)
